Reference: US11453690B2, “Receptor inhibitor, pharmaceutical composition comprising same, and use thereof” (BEIJING TIDE PHARMACEUTICAL CO., LTD., priority 2018, dated 2022)

The compounds below were run against AT2 Receptor (AT2R) (Homo sapiens (Human), UniProt P50052) (assay: Measurement of inhibitory activity on AT2 receptor (Tag-lite HTRF, Tb-labeled AT2R cells, angiotensin receptor red agonist)). Details: 1 h room temperature.
Format: binding
Description: Measurement of Inhibitory Activity on AT1 Receptor ([…])/AT2 Receptor (AT2R)
Through the following steps, the inhibitory activity of the compound on AT1R/AT2R (IC50 value) was determined:
1) An appropriate amount of 1×TLB (Tag-lite Buffer) was prepared and well mixed for use.
2) The compound was diluted by 10 times with ddH2O or DMSO. The compound was then dilute to 4 times of the working concentration with 1×TLB and mixed well for use.
3) 8600 nM Tag-lite angiotensin receptor red agonist was diluted to 12 nM (4×Kd) with 1×TLB.
4) 5 ml 1×TLB was taken into a 15 ml centrifuge tube.
5) After thawing 1 tube of Tb-labeled AT1R/AT2R cells in a 37° C. water bath, the cells were quickly transferred to the 1×TLB in step 4), mixed gently, and centrifuged at 1200 g for 5 minutes at room temperature.
6) The supernatant was aspirated gently, and the cells were resuspended and mixed in 2.7 ml 1×TLB, and then placed at room temperature until use.
7) 10 μl cells were added to all test wells, and 5 μl 4× working solution of the compound from step 2) was added to the corresponding test wells. 5 μl 4× Tag-lite angiotensin receptor red agonist well diluted in step 3) was added to all test wells.
8) After leaving the reaction plate at room temperature for 1 h, data were measured and analyzed using Envision HTRF Reader, and the half inhibitory concentration (IC50) of the compound on AT1R/AT2R was calculated with the GraphPad Prism four-parameter equation.

AT2 Receptor (AT2R), sequence (P50052 whole entry): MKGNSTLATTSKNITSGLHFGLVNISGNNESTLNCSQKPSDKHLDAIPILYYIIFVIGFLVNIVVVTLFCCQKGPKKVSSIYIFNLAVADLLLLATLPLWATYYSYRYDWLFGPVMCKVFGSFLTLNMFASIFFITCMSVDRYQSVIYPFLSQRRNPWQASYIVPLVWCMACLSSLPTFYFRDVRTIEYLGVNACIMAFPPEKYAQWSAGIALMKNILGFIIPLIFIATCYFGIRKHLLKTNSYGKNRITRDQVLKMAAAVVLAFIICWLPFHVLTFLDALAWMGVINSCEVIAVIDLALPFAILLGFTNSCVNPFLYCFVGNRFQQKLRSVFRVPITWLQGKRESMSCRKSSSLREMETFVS

Row | Compound | IC50
1 | O=C(O)[C@@H]1[C@H]2CC[C@@H](CN1C(=O)N(c1ccccc1)c1ccccc1)N2C(=O)N1CCCC1c1ccc(Cl)cc1 (stereo in doubt) [Compound C144, (1R,2S,5S)-8-((R)-2-(4-chlorphenyl)pyrrolidine-1-carbonyl)-3-(diphenylcarbamoyl)-3,8-diazabicyclo [3.2.1]octane-2-carboxylic acid] | 21.6 nM
2 | O=C(NC1CC2CCC1C(C(=O)O)N2C(=O)C(c1ccccc1)c1ccccc1)c1ccccc1 (stereo in doubt) [Compound C286, (1S,3S,4R)-5-benzamido-2-(2,2-diphenylacetyl)-2-azabicyclo[2.2.2]octane-3-carboxylic acid] | 760 nM
3 | O=C(O)[C@H]1[C@@H]2CC[C@H](CN1C(=O)C(c1ccccc1)c1ccccc1)N2C(=O)C(c1ccccc1)c1ccccc1 [Compound C2, (1S,2R,5R)-3,8-bis (2,2-diphenylacetyl)-3,8-diazabicyclo [3.2.1]octane-2-carboxylic acid] | 9.11 nM
4 | O=C(O)[C@@H]1[C@H]2CC[C@@H](CN1C(=O)C(c1ccccc1)c1ccccc1)N2C(=O)C(c1ccccc1)c1ccccc1 [Compound C3, (1R,2S,5S)-3,8-bis (2,2-diphenylacetyl)-3,8-diazabicyclo [3.2.1]octane-2-carboxylic acid] | 13.9 nM
5 | O=C(O)[C@H]1[C@@H]2CC[C@H](CN1C(=O)C(c1ccccc1)c1ccccc1)N2C(=O)C(c1ccccc1)c1ccccc1 [Compound C4, (1S,2R,5R)-3,8-bis (2,2-diphenylacetyl)-3,8-diazabicyclo [3.2.1]octane-2-carboxylic acid] | 9.82 nM
6 | O=C(O)[C@@H]1[C@H]2CC[C@@H](CN1C(=O)N1c3ccccc3C=Cc3ccccc31)N2C(=O)N(c1ccccc1)c1ccccc1 [Compound C7, (1R,2S,5S)-3-(5H-dibenzo[b,f]azepine-5-carbonyl)-8-(diphenylcarbamoyl)-3,8-diazabicyclo[3. 2.1]octane-2-carboxylic acid] | 82.7 nM
7 | O=C(O)[C@@H]1[C@H]2CC[C@@H](CN1C(=O)C(c1ccccc1)c1ccccc1)N2C(=O)N1c2ccccc2C=Cc2ccccc21 [Compound C9, (1R,2S,5S)-8-(5H-dibenzo[b,f]azepine-5-carbonyl)-3-(2,2-diphenylacetyl)-3,8-diazabicyclo [3.2.1]octane-2-carboxylic acid] | 107 nM
8 | O=C(O)[C@H]1[C@@H]2CC[C@H](CN1C(=O)N(c1ccccc1)c1ccccc1)N2C(=O)N(c1ccccc1)c1ccccc1 [Compound C13, (1S,2R,5R)-3,8-bis (diphenylcarbamoyl)-3,8-diazabicyclo [3.2.1]octane-2-carboxylic acid] | 22.2 nM
9 | O=C(O)[C@@H]1[C@H]2CC[C@@H](CN1C(=O)N1c3ccccc3Sc3ccccc31)N2C(=O)C(c1ccccc1)c1ccccc1 [Compound C28, (1R,2S,5S)-8-(2,2-diphenylacetyl)-3-(10H-phenothiazine-10-carbonyl)-3,8-diazabicyclo[3.2.1] octane-2-carboxylic acid] | 473 nM
10 | O=C(O)[C@@H]1[C@H]2CC[C@@H](CN1C(=O)C(c1ccccc1)c1ccccc1)N2C(=O)OCc1c(F)cccc1F [Compound C36, (1R,2S,5S)-8-(((2,6-diflurorbenzyl)oxy)carbonyl)-3-(2,2-diphenylacetyl)-3,8-diazabicyclo [3.2.1]octane-2-carboxylic acid] | 20.7 nM
11 | O=C(O)[C@@H]1[C@H]2CC[C@@H](CN1C(=O)N(c1ccccc1)c1ccccc1)N2C(=O)N(c1ccccc1)c1ccccc1 [Compound C41, (1R,2S,5S)-3,8-bis (diphenylcarbamoyl)-3,8-diazabicyclo [3.2.1]octane-2-carboxylic acid] | 9.77 nM
12 | CN(Cc1ccccc1)C(=O)N1C[C@@H]2CC[C@H]([C@H]1C(=O)O)N2C(=O)C(c1ccccc1)c1ccccc1 [Compound C62, (1R,2S,5S)-3-(benzyl(methyl)carbamoyl)-8-(2,2-diphenylacetyl)-3,8-diazabicyclo[3.2.1]octane-2-carboxylic acid] | 104 nM
13 | O=C(O)[C@@H]1[C@H]2CC[C@@H](CN1C(=O)Oc1ccccc1)N2C(=O)N(c1ccccc1)c1ccccc1 [Compound C69, (1R,2S,5S)-8-(diphenylcarbamoyl)-3-(phenoxycarbonyl)-3,8-diazabicyclo [3.2.1]octane-2-carboxylic acid] | 170 nM
14 | O=C(O)[C@H]1[C@@H]2CC[C@H](CN1C(=O)OCc1ccccc1)N2C(=O)C(c1ccccc1)c1ccccc1 [Compound C75, (1S,2R,5R)-3-((benzyloxy)carbonyl)-8-(2,2-diphenylacetyl)-3,8-diazabicyclo[3. 2.1]octane-2-carboxylic acid] | 54 nM
15 | O=C(O)[C@H]1[C@@H]2CC[C@H](CN1C(=O)C(c1ccccc1)c1ccccc1)N2C(=O)OCc1ccccc1 [Compound C76, (1S,2R,5R)-8-((benzyloxy)carbonyl)-3-(2,2-diphenylacetyl)-3,8-diazabicyclo [3.2.1]octane-2-carboxylic acid] | 69.7 nM
16 | O=C(O)[C@@H]1[C@H]2CC[C@@H](CN1C(=O)N(c1ccccc1)c1ccccc1)N2C(=O)C1(c2ccccc2)CCCC1 [Compound C113, (1R,2S,5S)-3-(diphenylcarbamoyl)-8-(1-phenylcyclopentane-1-carbonyl)-3,8-diazabicyclo [3.2.1]octane-2-carboxylic acid] | 12.1 nM
17 | CN(Cc1ccccc1F)C(=O)N1[C@H]2CC[C@@H]1[C@@H](C(=O)O)N(C(=O)N(c1ccccc1)c1ccccc1)C2 [Compound C114, (1R,2S,5S)-3-(diphenylcarbamoyl)-8-((2-fluorobenzyl) (methyl)carbamoyl)-3,8-diazabicyclo [3.2.1]octane-2-carboxylic acid] | 26.4 nM
18 | O=C(O)[C@@H]1[C@H]2CC[C@@H](CN1C(=O)N(c1ccccc1)c1ccccc1)N2C(=O)Oc1ccccc1 [Compound C115, (1R,2S,5S)-3-(diphenylcarbamoyl)-8-(phenoxycarbonyl)-3,8-diazabicyclo [3.2.1]octane-2-carboxylic acid] | 431 nM
19 | CC(NC(=O)N1[C@H]2CC[C@@H]1[C@@H](C(=O)O)N(C(=O)N(c1ccccc1)c1ccccc1)C2)c1ccccc1 (stereo partly drawn) [Compound C117, (1R,2S,5S)-3-(diphenylcarbamoyl)-8-((1-phenylethyl)carbamoyl)-3,8-diazabicyclo [3.2.1]octane-2-carboxylic acid] | 61.3 nM
20 | CN(Cc1ccccc1)C(=O)N1[C@H]2CC[C@@H]1[C@@H](C(=O)O)N(C(=O)C1(c3ccccc3)CCCCC1)C2 [Compound C120, (1R,2S,5S)-8-(benzyl(methyl)carbamoyl)-3-(1-phenylcyclohexane-1-carbonyl)-3,8-diazabicyclo [3.2.1]octane-2-carboxylic acid] | 350 nM
21 | CN(Cc1cccnc1)C(=O)N1[C@H]2CC[C@@H]1[C@@H](C(=O)O)N(C(=O)N(c1ccccc1)c1ccccc1)C2 [Compound C124, (1R,2S,5S)-3-(diphenylcarbamoyl)-8-(methyl(pyridine-3-ylmethyl)carbamoyl)-3,8-diazabicyclo [3.2.1]octane-2-carboxylic acid] | 37.8 nM
22 | CN(Cc1ccncc1)C(=O)N1[C@H]2CC[C@@H]1[C@@H](C(=O)O)N(C(=O)N(c1ccccc1)c1ccccc1)C2 [Compound C125, (1R,2S,5S)-3-(diphenylcarbamoyl)-8-(methyl(pyridine-4-ylmethyl)carbamoyl)-3,8-diazabicyclo [3.2.1]octane-2-carboxylic acid] | 19 nM
23 | CN(Cc1ccccn1)C(=O)N1[C@H]2CC[C@@H]1[C@@H](C(=O)O)N(C(=O)N(c1ccccc1)c1ccccc1)C2 [Compound C126, (1R,2S,5S)-3-(diphenylcarbamoyl)-8-(methyl(pyridine-2-ylmethyl)carbamoyl)-3,8-diazabicyclo [3.2.1]octane-2-carboxylic acid] | 78 nM
24 | O=C(O)[C@@H]1[C@H]2CC[C@@H](CN1C(=O)N(c1ccccc1)c1ccccc1)N2C(=O)N(Cc1ccccc1)CC(F)(F)F [Compound C128, (1R,2S,5S)-8-(benzyl(2,2,2-trifluoroethyl)carbamoyl)-3-(diphenylcarbamoyl)-3,8-diazabicyclo [3.2.1]octane-2-carboxylic acid] | 21.5 nM
25 | CN(Cc1ccccc1)C(=O)N1[C@H]2CC[C@@H]1[C@@H](C(=O)O)N(C(=O)N(c1ccc(F)cc1)c1ccc(F)cc1)C2 [Compound C129, (1R,2S,5S)-8-(benzyl(methyl)carbamoyl)-3-(bis(4-fluorophenyl)carbamoyl)-3,8-diazabicyclo [3.2.1]octane-2-carboxylic acid] | 148 nM
26 | O=C(O)[C@@H]1[C@H]2CC[C@@H](CN1C(=O)N(c1ccccc1)c1ccccc1)N2C(=O)N1CCc2ccccc2C1 [Compound C131, (1R,2S,5S)-3-(diphenylcarbamoyl)-8-(1,2,3,4-tetrahydroisoquinoline-2-carbonyl)-3,8-diazabicyclo [3.2.1]octane-2-carboxylic acid] | 495 nM
27 | O=C(O)[C@@H]1[C@H]2CC[C@@H](CN1C(=O)N(c1ccccc1)c1ccccc1)N2C(=O)N1CCN(c2ccccc2)CC1 [Compound C132, (1R,2S,5S)-3-(diphenylcarbamoyl)-8-(4-phenylpiperazine-1-carbonyl)-3,8-diazabicyclo[3.2.1] octane-2-carboxylic acid] | 482 nM
